Values after ≈ are worked out from the molar mass of the structure shown. Active and inactive are the calls of the source. No cut-off for these calls is given here.
Columns and labels:
Plasmodium yoelii [1] = assay: (§1) Compound was evaluated for uM; set-up: concentration or dose not given beside the values; details: concentration not given here
Trichophyton benhamiae = assay: In vitro minimum inhibitory concentration against Trichophyton mentagrophytes; format: functional, Arthroderma benhamiae
Plasmodium yoelii [2] = assay: Compound was evaluated for uM: No effect
Plasmodium yoelii [3] = assay: (§2) Compound was evaluated for uM concentration.; details: concentration not given here
Plasmodium yoelii [4] = assay: as §1; details: concentration not given here
Plasmodium yoelii [5] = assay: Compound was evaluated for anti-heme polymerase activity in intact erythrocytes infected with drug resistant Plasmodium yoelii at 1.0 uM concentration.; format: cell-based
Plasmodium yoelii [6] = assay: as §2; details: concentration not given here; remark: listed apart in the source

Row | SMILES | inhibition (Plasmodium yoelii [1]) | MIC (Trichophyton benhamiae) | inhibition (Plasmodium yoelii [2]) | inhibition (Plasmodium yoelii [4]) | inhibition (Plasmodium yoelii [3]) | inhibition (Plasmodium yoelii [5]) | inhibition (Plasmodium yoelii [6])
1 | CCOC(=O)c1cnc2ccc(C3(CCC(=O)CCc4ccc(OC)c(OC)c4)CCC(=O)NC3=O)cc2c1O (configuration not stated) | 86% | 50 µg/mL (≈ 91.1 µM) | – | – | – | – | –
2 | CCOC(=O)c1cnc2cc(C3=NNC(=O)CC3)ccc2c1O | 69% | 50 µg/mL (≈ 160 µM) | – | – | – | – | –
3 | CCOC(=O)c1cnc2ccc(C3(CCC(=O)CCc4ccoc4)CCC(=O)NC3=O)cc2c1O (configuration not stated) | 82% | 50 µg/mL (≈ 104 µM) | – | – | – | – | –
4 | CCOC(=O)c1cnc2ccc(C3(CCC(=O)OC)CCC(=O)NC3=O)cc2c1O (configuration not stated) | 66% | 50 µg/mL (≈ 121 µM) | – | – | 40% | 62% | 11%
5 | CCOC(=O)c1cnc2ccc(C3(CCC(=O)NC(C)CC)CCC(=O)NC3=O)cc2c1O (configuration not stated) | 71% | 50 µg/mL (≈ 110 µM) | – | – | 42% | 68% | 17%

Further molecules by falling MIC (Trichophyton benhamiae), results first:

Row | inhibition (Plasmodium yoelii [1]) | MIC (Trichophyton benhamiae) | inhibition (Plasmodium yoelii [2]) | inhibition (Plasmodium yoelii [4]) | SMILES | inhibition (Plasmodium yoelii [3]) | inhibition (Plasmodium yoelii [5]) | inhibition (Plasmodium yoelii [6])
6 | 46% | 50 µg/mL (≈ 166 µM) | – | – | CCOC(=O)c1cnc2cc(C3CCC(=O)O3)ccc2c1O (configuration not stated) | – | – | –
7 | – | 50 µg/mL (≈ 190 µM) | inactive | – | CCOC(=O)c1cnc2cc(CO)c(O)cc2c1O | – | – | –
8 | 85% | 50 µg/mL (≈ 110 µM) | – | – | CCCCNC(=O)CCC1(c2ccc3ncc(C(=O)OCC)c(O)c3c2)CCC(=O)NC1=O (configuration not stated) | – | – | –
9 | – | 50 µg/mL (≈ 156 µM) | – | 46% | CCN(CC)CCCC(C)Nc1ccnc2cc(Cl)ccc12 (configuration not stated) [CHLOROQUINE] | 47% | – | –
10 | 88% | 50 µg/mL (≈ 106 µM) | – | – | CCOC(=O)c1cnc2ccc(C3(CCC(=O)NCCC(C)C)CCC(=O)NC3=O)cc2c1O (configuration not stated) | – | – | –
